Assay results as given in BigSolDB 2.1.

CC(=O)c1c(C)cc(C(C)(C)C)cc1C
solubility (mole fraction)
Settings	in acetone	in acetonitrile	in cyclohexane	in ethanol	in ethyl acetate	in isopropanol	in methanol	in n-octanol
273.15 K	0.308	0.188	0.279	0.0701	0.376	0.073	0.0607	0.123
278.15 K	0.346	0.235	0.337	0.095	0.427	0.101	0.0828	0.161
283.15 K	0.393	0.291	0.407	0.14	0.479	0.146	0.116	0.205
288.15 K	0.445	0.355	0.48	0.196	0.539	0.206	0.16	0.27
293.15 K	0.505	0.428	0.56	0.27	0.603	0.288	0.228	0.354
298.15 K	0.568	0.521	0.645	0.37	0.673	0.391	0.339	0.46
303.15 K	0.64	0.623	0.735	0.52	0.741	0.542	0.478	0.6
308.15 K	0.728	0.739	0.832	0.705	0.817	0.729	0.667	0.761
